# What was measured:
# [1] = biological target: T1, hTLR7 (Homo sapiens, UniProt Q9NYK1); assay: Human TLR7 Reporter Assay; assay type: cell-based; details: HEK-Blue hTLR7 cells, 16 hours, normalized to CL097 (6 μM) and DMSO
# T1 construct: host or cells: HEK-Blue hTLR7 cells (HEK293-derived, own knowledge)
# T1 sequence (Q9NYK1 27-1049): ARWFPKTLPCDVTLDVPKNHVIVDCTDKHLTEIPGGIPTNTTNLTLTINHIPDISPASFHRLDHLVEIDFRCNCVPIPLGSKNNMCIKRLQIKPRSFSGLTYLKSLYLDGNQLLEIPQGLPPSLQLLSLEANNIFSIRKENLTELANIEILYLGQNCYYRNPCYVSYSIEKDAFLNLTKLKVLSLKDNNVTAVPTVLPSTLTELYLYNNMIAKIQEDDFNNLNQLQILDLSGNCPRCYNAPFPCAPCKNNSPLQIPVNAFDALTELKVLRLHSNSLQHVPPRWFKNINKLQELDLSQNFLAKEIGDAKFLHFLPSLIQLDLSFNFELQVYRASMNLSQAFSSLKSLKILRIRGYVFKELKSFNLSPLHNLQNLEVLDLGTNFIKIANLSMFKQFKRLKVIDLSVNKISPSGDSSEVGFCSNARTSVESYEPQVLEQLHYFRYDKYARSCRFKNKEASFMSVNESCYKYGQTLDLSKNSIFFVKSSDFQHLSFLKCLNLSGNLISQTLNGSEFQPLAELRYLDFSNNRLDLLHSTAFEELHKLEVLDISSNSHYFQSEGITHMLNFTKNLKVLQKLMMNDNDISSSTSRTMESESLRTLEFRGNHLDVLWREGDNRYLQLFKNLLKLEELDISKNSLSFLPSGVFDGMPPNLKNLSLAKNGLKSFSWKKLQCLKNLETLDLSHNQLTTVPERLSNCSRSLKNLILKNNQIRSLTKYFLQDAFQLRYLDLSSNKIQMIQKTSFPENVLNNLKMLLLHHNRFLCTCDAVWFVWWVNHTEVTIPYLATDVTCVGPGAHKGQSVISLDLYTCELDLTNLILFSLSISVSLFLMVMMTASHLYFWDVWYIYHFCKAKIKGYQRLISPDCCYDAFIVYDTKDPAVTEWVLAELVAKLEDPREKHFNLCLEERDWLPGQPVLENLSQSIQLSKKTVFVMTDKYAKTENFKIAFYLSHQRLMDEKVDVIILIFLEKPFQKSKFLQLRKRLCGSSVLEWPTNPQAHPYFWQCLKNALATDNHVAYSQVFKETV
# Outline: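 HEK-Blue hTLR7 reporter cells (20,000/well) incubated 16 h at 37 °C with 10-point 3-fold compound dilutions; SEAP read by absorbance at 620 nm. Effects normalized between CL097 (6 μM) and DMSO controls; EC50 from 4-parameter fit.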
# [2] = biological target: T2, hTLR8 (Homo sapiens, UniProt Q9NR97); assay: Human TLR8 Reporter Assay; assay type: cell-based; details: HEK-Blue hTLR8 cells, 16 hours, normalized to tl8-506 (1 μM) and DMSO
# T2 construct: host or cells: HEK-Blue hTLR8 cells (HEK293-derived, own knowledge)
# T2 sequence (Q9NR97 27-1041): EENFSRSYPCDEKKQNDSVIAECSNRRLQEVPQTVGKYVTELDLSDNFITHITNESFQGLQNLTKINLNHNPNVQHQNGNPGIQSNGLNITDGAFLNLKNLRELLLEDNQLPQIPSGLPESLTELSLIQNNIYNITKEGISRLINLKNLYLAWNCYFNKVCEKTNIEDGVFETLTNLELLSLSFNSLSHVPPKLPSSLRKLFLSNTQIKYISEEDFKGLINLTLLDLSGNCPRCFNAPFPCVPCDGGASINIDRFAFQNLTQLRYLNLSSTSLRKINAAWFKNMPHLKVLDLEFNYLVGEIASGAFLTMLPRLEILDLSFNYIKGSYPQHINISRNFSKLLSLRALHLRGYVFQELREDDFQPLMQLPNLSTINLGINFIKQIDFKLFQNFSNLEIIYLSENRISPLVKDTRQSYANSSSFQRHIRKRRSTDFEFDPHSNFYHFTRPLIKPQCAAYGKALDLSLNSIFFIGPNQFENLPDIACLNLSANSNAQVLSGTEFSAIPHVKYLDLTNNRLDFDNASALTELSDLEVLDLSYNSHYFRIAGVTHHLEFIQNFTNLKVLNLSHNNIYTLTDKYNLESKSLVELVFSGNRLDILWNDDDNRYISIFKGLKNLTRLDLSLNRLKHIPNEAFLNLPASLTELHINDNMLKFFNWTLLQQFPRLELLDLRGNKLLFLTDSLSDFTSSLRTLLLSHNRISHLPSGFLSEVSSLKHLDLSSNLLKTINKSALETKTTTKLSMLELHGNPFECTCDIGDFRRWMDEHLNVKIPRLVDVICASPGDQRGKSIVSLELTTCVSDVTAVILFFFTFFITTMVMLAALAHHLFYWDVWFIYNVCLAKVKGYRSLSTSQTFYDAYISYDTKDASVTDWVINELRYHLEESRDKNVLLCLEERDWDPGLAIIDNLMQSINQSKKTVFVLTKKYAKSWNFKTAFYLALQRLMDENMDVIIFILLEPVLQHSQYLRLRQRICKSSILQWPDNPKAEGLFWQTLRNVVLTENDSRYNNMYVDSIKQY
# Outline: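 HEK-Blue hTLR8 cells (20,000/well) incubated 16 h at 37 °C with 10-point 3-fold compound dilutions in HEK-Blue Detection medium; reporter read as absorbance at 620 nm. Effects normalized between DMSO and tl8-506 (1 μM); EC50 from 4-parameter fit.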
Compound,EC50 [1] [nM],EC50 [2] [nM]
CCC[C@@H](CO)Nc1nc(N)nc2cn(Cc3ncccc3OC)nc12 [Compound 133],114,161
CCC[C@@H](CO)Nc1nc(N)nc2cn(Cc3c(OC)cc(C(CN)N(C)CCC)cc3OC)nc12 (stereo partly shown) [Compound 221],5090,3490
CCCCNc1nc(N)nc2cn(Cc3ccc(N4CCN(C(=O)[C@H]5CC[C@H](CN)CC5)CC4)cc3OC)nc12 [Compound 115],329,5590
CCCCNc1nc(N)nc2cn(Cc3c(OC)cc(SC[C@H](N)C(=O)O)cc3OC)nc12 [Compound 230],898,8840
CCCCNc1nc(N)nc2cn(Cc3ccc(N4CC5(CNC5)C4)cc3OC)nc12 [Compound 116],988,4200
CCCCNc1nc(N)nc2cn(Cc3ccc(CN4CCN(C(=O)CN5C(=O)C=CC5=O)CC4)cc3OC)nc12 [Compound 105],1790,6400
CCCCNc1nc(N)nc2cn(Cc3c(OC)cc(NCCN4C(=O)C=CC4=O)cc3OC)nc12 [Compound 134],1520,14400
CCC[C@@H](CO)Nc1nc(N)nc2cn(Cc3ncc(CNC)cc3OC)nc12 [Compound 195],1590,785
CCCCNc1nc(N)nc2cn(Cc3c(OC)cc(N4C(=O)C=CC4=O)cc3OC)nc12 [Compound 98],414,> 9980
CCCCNc1nc(N)nc2cn(Cc3c(OC)cc(CN4CCNCC4)cc3OC)nc12 [Compound 62],840,1490
CCCCC(CCC)Nc1nc(N)nc2cn(Cc3ccccc3OC)nc12 (stereo not shown) [Compound 18],315,> 29900
CCC[C@@H](CO)Nc1nc(N)nc2cn(Cc3ccc(CNC)cc3OC)nc12 [Compound 155],2460,6530
CCC[C@@H](C)Nc1nc(N)nc2cn(Cc3c(OC)cccc3OC)nc12 [Compound 113],19,206
CCCCNc1nc(N)nc2cn(Cc3c(OC)cc(C(C)N)cc3OC)nc12 (stereo not shown) [Compound 214],525,235
CCCNC(C)c1ccc(Cn2cc3nc(N)nc(N[C@H](CO)CCC)c3n2)c(OC)c1 (stereo partly shown) [Compound 231],619,48.9
CCCCNc1nc(N)nc2cn(Cc3ccc(N4CCN(C(=O)C5CCC(CN6C(=O)C=CC6=O)CC5)CC4)cc3OC)nc12 (stereo not shown) [Compound 68],190,3640
CCCCC(CCO)Nc1nc(N)nc2cn(Cc3ccccc3OC)nc12 (stereo not shown) [Compound 17],398,> 29900
CCC(C)CNc1nc(N)nc2cn(Cc3c(OC)cccc3OC)nc12 (stereo not shown) [Compound 56],369,> 9980
CCCC(C)Nc1nc(N)nc2cn(Cc3c(OC)cccc3OC)nc12 (stereo not shown) [Compound 91],35.8,291
CCCCC(CCC)Nc1nc(N)nc2cn(Cc3ccccc3OC)nc12 (stereo not shown) [Compound 19],435,> 29900

# Next, values leading:
EC50 [1] [nM],EC50 [2] [nM],Compound
36,725,CCCCNc1nc(N)nc2cn(Cc3ccc(C(C)N(C)CCC)cc3OC)nc12 (stereo not shown) [Compound 241]
57.7,106,CCCCNc1nc(N)nc2cn(Cc3ccc(C(C)NC)cc3OC)nc12 (stereo not shown) [Compound 193]
1450,8320,CCCCNc1nc(N)nc2cn(Cc3ncnn3C)nc12 [Compound 174]
91.9,99.8,CCCCNc1nc(N)nc2cn(Cc3c(OC)cc(CNC)cc3OC)nc12 [Compound 109]
106,119,CCCCNc1nc(N)nc2cn(Cc3ccc(C(C)NCCC)cc3OC)nc12 (stereo not shown) [Compound 216]
311,1700,CCCCNc1nc(N)nc2cn(Cc3cncnc3OC)nc12 [Compound 106]
354,3220,CCCCNc1nc(N)nc2cn(Cc3ccc(CN)cn3)nc12 [Compound 142]
743,880,CCCCNc1nc(N)nc2cn(Cc3ccc(N4CCNCC4)cn3)nc12 [Compound 123]
1140,6370,CCCCNc1nc(N)nc2cn(Cc3cncn3C)nc12 [Compound 180]
526,11400,CCCCNc1nc(N)nc2cn(Cc3ccc(C4CCC(=O)N4)cc3)nc12 (stereo not shown) [Compound 203]
180,265,CCCCNc1nc(N)nc2cn(Cc3ccc(CCNC)cc3OC)nc12 [Compound 147]
239,748,CCCCNc1nc(N)nc2cn(Cc3c(C)cccc3OC)nc12 [Compound 39]
294,455,CCCCNc1nc(N)nc2cn(Cc3ccc(CC(C)N)cc3OC)nc12 (stereo not shown) [Compound 178]
265,2370,CCCCNc1nc(N)nc2cn(Cc3ccccn3)nc12 [Compound 97]
50.9,546,CCCCNc1nc(N)nc2cn(Cc3ncccc3OC)nc12 [Compound 8]
277,1590,CCCCNc1nc(N)nc2cn(Cc3cn(C)nc3OC)nc12 [Compound 197]
578,6540,CCCCNc1nc(N)nc2cn(Cc3ccccc3Cl)nc12 [Compound 4]
122,275,CCCCNc1nc(N)nc2cn(Cc3ccc(C(C)N(C)C)cc3OC)nc12 (stereo not shown) [Compound 219]
> 29900,2980,CCCCNc1nc(N)nc2cn(CCCCN)nc12 [Compound 42]
1570,19900,CCCCNc1nc(N)nc2cn(Cc3ccc(CN4CCNCC4)cc3)nc12 [Compound 112]
72.7,328,CCCCNc1nc(N)nc2cn(Cc3c(OC)cccc3OC)nc12 [Compound 5]
2790,3990,CCCCNc1nc(N)nc2cn(Cc3nnc(C)o3)nc12 [Compound 172]
464,1890,CCCNc1nc(N)nc2cn(Cc3c(OC)cccc3OC)nc12 [Compound 26]
263,1690,CCCCNc1nc(N)nc2cn(Cc3ccc(OC)cc3)nc12 [Compound 38]
2270,6320,CCCCNc1nc(N)nc2cn(Cc3ccc(CN4CC(CNC)C4)cc3OC)nc12 [Compound 145]
456,756,CCCCNc1nc(N)nc2cn(Cc3ccc(C4CCNC4)cc3)nc12 (stereo not shown) [Compound 196]
439,692,CCCCNc1nc(N)nc2cn(Cc3ccc(CN)cc3OC)nc12 [Compound 137]

# — patent publication US20230219962A1, “PYRAZOLO[4,3-d]PYRIMIDINE DERIVATIVES AND METHODS OF USE THEREOF FOR THE TREATMENT OF CELLULAR PROLIFERATIVE DISORDERS” (Merck Sharp & Dohme LLC, priority 2020, published 2023)
